Reference: the OPERA property sets (Mansouri et al. 2018)

details: not given

Compound	boiling point [°C]	log10 vapour pressure (mmHg)	melting point [°C]	log10 Koc (L/kg)	ready biodegradability	log10 Henry constant (atm·m³/mol)
C=CCN=C=S	152	0.568	-80			
O=C(O)c1ccco1	231		134			
CCN(CC)CCNc1ccc(CO)c2sc3ccccc3c(=O)c12			102			
CCCCCCN1CCCC1=O			4			
C=CCCCCCCCCC(=O)OCC	264		-38			
CSc1nc(NC(C)C)nc(NC(C)C)n1		-5.91	119	2.85		
O[C@@H](c1ccccc1)[C@@H](O)c1ccccc1			138			
CCCCOC(=O)c1ccccc1C(=O)O			73.5			
COC(CC(OC)OC)OC	183					
Cc1ccc(S(=O)O)cc1			86.5			
O=C(O)c1ccc(CBr)cc1			230			
CCC1=CCCCC1	137		-110			
Oc1ccc(Cl)c(O)c1			107		not readily biodegradable	
COc1ccc(Cl)cc1Cl	232		28.5			
ClCI	109					-3.06
CCOC(=O)C1(C(=O)OCC)CC1	216					
CC(=O)O[C@@H]1CC2CCC1(C)C2(C)C (stereo not given in full)	221	-0.642	29			
CCCCNC(=O)c1ccc2cc(O)c(O)cc2c1			194			
CCc1nc2ccccc2[nH]1			175			
C=C(C)CCCCCC	145		-77.8			
CC(C#N)CCC#N (stereo not given)	263	-2.29	-45			
CS(C)(=O)=O	238		109			
O=C(c1ccccc1)c1ccncc1	315		72			
O=S(=O)(Cl)c1ccccc1	252	-1.24	14.5			
Cc1ccc(C(C)C)cc1O	238		1			

Compound	boiling point [°C]	log10 vapour pressure (mmHg)	melting point [°C]	log10 Koc (L/kg)	ready biodegradability	log10 Henry constant (atm·m³/mol)
Cc1ccc2ccccc2c1N			32			
CC(C)(C)C(=O)NNCc1ccccc1			68.5			
Cc1ccc2ccccc2n1	246	-2.02	-1.5			
c1ccc2c(c1)OCCOCCOCCOc1ccccc1OCCOCCOCCO2			104			
CCN=C=S	132	1.06	-5.9			
CCCCCCF	91.5	1.76	-103			
CCOC(C)Cl (stereo not given)	93.5					
Clc1ccc(-c2ccccc2)c(Cl)c1		-2.86				-3.55
Cc1cc(O)c(C(C)C)cc1Cl	258		63			
Clc1ccc(Cl)c(-c2cc(Cl)c(Cl)c(Cl)c2)c1			105			
CCCC1CCNCC1	173					
Nc1c(Cl)c(F)nc(OCC(=O)O)c1Cl		-10.5	232			
Cc1ccc(CC(C)C)cc1	196					
Oc1cc2ccccc2cc1O			162			
CC1OC1C (stereo not given)	58.2		-82.5			
CC[N+](C)(C)CCOC(=O)C(O)(c1ccccc1)c1ccccc1.[Cl-]			213			
CCSC(=O)N1CCCCCC1		-2.25		1.92		-5.39
CC(C)CS	88.5	1.84				
CC(C)=CC1C(C(=O)OCc2coc(Cc3ccccc3)c2)C1(C)C (stereo not given)			44.2	5		
O=[N+]([O-])c1c(Cl)cc(Cl)cc1Cl			72		not readily biodegradable	
CCCCC(CC)COP(=O)(Oc1ccccc1)Oc1ccccc1 (stereo not given)	375	-4.3	-54		not readily biodegradable	-4.27
Brc1nccs1	171					
O=C(O)/C=C/CCCCCCCCC(=O)O			166			
[C-]#[N+]CCCC	120					
O=C(O)c1ccccc1Nc1cccc(C(F)(F)F)c1			134			

same assay, conditions: fish

Compound	log10 BCF	log10 biotransformation half-life (days)
CCSC(=O)N1CCCCCC1	1.41	-1.08
O=[N+]([O-])c1c(Cl)cc(Cl)cc1Cl	2.47	0.71
CCCCC(CC)COP(=O)(Oc1ccccc1)Oc1ccccc1 (stereo not given)	2.49	-0.15
